Experiments:
[1] = tested on: brown planthoppers; test: Insecticidal test on brown planthoppers; assay type: in vivo, Nilaparvata lugens; conditions: active ingredient 500 ppm, germinating rice immersed, 4th-instar larvae, 25° C., 6 days
[2] = tested on: two-spotted spider mites; test: Miticidal test on two-spotted spider mites (by soil drenching); assay type: in vivo, Tetranychus urticae; design: scale not given here; conditions: active ingredient 100 ppm, 5 ml per 100 g soil, 25° C., 13 days
Description: (§1) Wettable powders were prepared in accordance with Formulation Example 2 and diluted with water to an active ingredient concentration of 100 ppm. 100 g of the soil in cups with soybean seedlings which had been inoculated with imago two-spotted spider mites were drenched with 5 ml of the resulting solutions. The treated seedlings were placed in a thermoplastic chamber at 25° C. for 13 days, and the mite survivors were counted for calculation of the miticidal value by using Equation 2.

[3] = tested on: southern root-knot nematodes; test: Nemastatic test on southern root-knot nematodes; assay type: in vivo, Meloidogyne sp.; conditions: diluted solution 20 ppm mixed 1:1 with suspension of second stage larvae, 25° C., 5 days
[4] = tested on: two-spotted spider mites; test: Miticidal test on two-spotted spider mites (by dipping); assay type: in vivo, Tetranychus urticae; design: scale not given here; conditions: dipping of soybean seedlings, active ingredient 500 ppm, 25° C., 13 days
Description: as §1, with “500” for “100”, “Soybean” for “100 g of the soil in cups with soybean”, “dipped in” for “drenched with 5 ml of”, “solutions and dried in air.” for “solutions.”, “thermostatic” for “thermoplastic”, “2. The test was carried out by one series system.” for “2.”

## Cc1cc(F)c(-n2nc(C(F)(F)F)nc2N(C)N)cc1[S+]([O-])CC(F)(F)F (stereo not shown) [Compound 171]
[1]
  Insecticidal degree (%): 100%
[2]
  Miticidal value: 100
[3]
  Nemastatic degree (%): 100%
[4]
  Miticidal value: 100

Source: patent US7872036B2, “3-triazolylphenyl sulfide derivative and insecticide, miticide and nematicide containing it as an active ingredient” (Kumiai Chemical Industry Co., Ltd., priority 2004, dated 2011)
